Measured values reported in patent publication US20210113492A1, “METHOD FOR INHIBITING PROLIFERATION AND METASTASIS OF CANCER CELLS BY USING NAPHTHOQUINONE DERIVATIVE” (National Tsing Hua University, priority 2019, published 2021).
Values after ≈ are worked out from the molar mass of the structure shown.

Experiments:
[1] = tested on: human non-small cell lung carcinoma cells (H1299); experiment: Mitochondrial morphology and distribution by immunofluorescence staining, H1299; type: cell-based; settings: 1 μM or 2.5 μM, 24 hours, anti-TOM20 staining
Procedure: (§1) The effects of isoplumbagin on mitochondrial morphology and distribution of OC3-IV2, U87, H1299 and PC3 cell lines were measured by immunofluorescence staining After OC3-IV2, U87, H1299, and PC3 cells were treated with DMSO, 1 μM, or 2.5 μM isoplumbagin for 24 hours, cells were fixed by 4% (v/v) paraformaldehyde and permeabilized by 0.1% (v/v) Triton X-100. Cells were incubated in blocking buffer containing 1% bovine serum albumin. After blocking, cells were incubated overnight with indicated primary antibodies against TOM20 (a mitochondria marker, sc-11415, Santa Cruz), and then incubated with Alexa Fluor 488-conjugated secondary antibodies (A11001, Invitrogen). Nucleus was stained with DAPI, actin was stained with rhodamine phalloidin (A12379, Invitrogen) and cells were mounted using Prolong Gold reagent (P36930, Invitrogen). 63 images were taken by LSM800 confocal microscopes (Zeiss).
(§2) FIGS. 5A-5D show the effect of isoplumbagin on mitochondrial morphogenesis and distribution of oral squamous cell carcinoma cells (OC3-IV2), human primary glioblastoma cells (U87), human non-small cell lung carcinoma cells (H1299) and human prostate cancer cells (PC3). Cells treated with either solvent control (DMSO) or isoplumbagin were determined by immunofluorescence staining using anti-TOM20 (mitochondria, green) antibody, rhodamine phalloidin (actin, red) and DAPI (nucleus, blue). […]

[2] = tested on: prostate cancer cells (PC3); experiment: MTT survival assay, PC3; type: cell-based; settings: Homo sapiens, 48 h, read-out: IC50, survival rate
Procedure: According to the present invention, human prostate cancer cell line PC3 cells were obtained from ATCC (ATCC® ^CRL-1435™) and maintained in DMEM medium supplemented with 10% FBS, 1% L-Gln and 1% AA. Cells were maintained in an atmosphere containing 5% CO2 at 37° C., and the culture medium was replaced every 2 days.
(§3) Isoplumbagin (AKOS006277326, acquired from AKos GmbH, Steinen, Germany) was dissolved in dimethyl sulfoxide (DMSO) and added to the medium, so that the final concentration of DMSO was less than 0.1%. The survival rate of isoplumbagin on OC3-IV2, U87, H1299 and PC3 cell lines was determined using the 3-(4,5-dimethylthiazol-2-yl)-2,5-diphenyltetrazolium bromide (MTT; Sigma-Aldrich) assays. 3×10^3 cells/well were seeded in 96-well plates. After incubation for 24 h, cells were treated with isoplumbagin at various concentrations (0, 1, 5, 10, 25, 50 and 100 μM) and incubated for a further 48 h. At the end of treatment, 10 μL 5 mg/mL MTT was added to each well. After incubation at 37° C. for 3 h, medium was removed and DMSO was added to each well to dissolve reduced MTT product formazan. The absorbance of dissolved formazan was measured at 550 nm wavelengths by a spectrophotometer. […]

[3] = tested on: human non-small cell lung carcinoma cells (H1299); experiment: MTT survival assay, H1299; type: cell-based; settings: NCI-H1299, 48 h, read-out: IC50, survival rate
Procedure: According to the present invention, human non-small cell lung carcinoma cell H1299 were obtained from ATCC (ATCC® CRL-5803™) cultured in Roswell Park Memorial Institute (RPMI) 1640 medium (Invitrogen) containing 10% FBS, 1% L-Gln and 1% AA. Cells were maintained in a humidified atmosphere containing 5% CO2 at 37° C., and the culture medium was replaced every 2 days.
as §3

[4] = tested on: oral squamous cell carcinoma cells (OC3-IV2); experiment: Mitochondrial morphology and distribution by immunofluorescence staining, OC3-IV2; type: cell-based, human; settings: 1 μM or 2.5 μM, 24 hours, anti-TOM20 staining
Procedure: as §1, §2

[5] = tested on: human prostate cancer cells (PC3); experiment: Boyden chamber invasion assay, PC3; type: cell-based; settings: 2.5, 5 and 10 μM, 24 h, dose dependency (FIG. 2D)
Procedure: Cells were harvested by […] and resuspended in a serum-free medium with 0.1% BSA. Then, […] of cell suspension (2×10^5 cells) was seeded into the upper insert of SPLInsert with Polyethylene terephthalate (PET) membrane (pore size: 8.0 μm) (SPL Lifesciences, Korea) pre-coated with matrigel (BD Biosciences, San Jose, Calif.). The bottom well of 24-well plate of SPLInsert was filled with cell medium containing 10% FBS with different concentrations of isoplumbagin (5, 7.5 and 10 μM, Experimental group of oral squamous cell carcinoma cells (OC3-IV2); 2.5, 5 and 10 μM, Experimental groups of human primary glioblastoma cells (U87), human non-small cell lung carcinoma cells (H1299), human prostate cancer cells (PC3) and human cervical cancer cells (Hela)) or without isoplumbagin (DMSO added). […] Number of cells was counted using Image J. Relative invasion ability was calculated as cell number per area.
FIGS. 2A-2E show the inhibitory effect of different doses of isoplumbagin on invasion for oral squamous cell carcinoma cells (OC3-IV2), human primary glioblastoma cells (U87), human non-small cell lung carcinoma cells (H1299), prostate cancer cells (PC3) and cervical cancer cells (Hela) assessed with the Boyden chamber assays. *Compared with solvent control (DMSO). […]

[6] = tested on: human prostate cancer cells (PC3); experiment: Mitochondrial morphology and distribution by immunofluorescence staining, PC3; type: cell-based; settings: 1 μM or 2.5 μM, 24 hours, anti-TOM20 staining
Procedure: as §1, §2

CC1=CC(=O)c2cccc(O)c2C1=O [isoplumbagin, 5-hydroxy-3-methyl-1,4-naphthoquinone]
mitochondrial morphogenesis and distribution [1]: can alter the mitochondrial morphogenesis and distribution | IC50 [2]: 1.13 µg/mL (≈ 6 µM) | IC50 [3]: 0.28 µg/mL (≈ 1.49 µM) | mitochondrial morphogenesis and distribution [4]: can alter the mitochondrial morphogenesis and distribution | cancer cells migrating through the membrane (invasion) [5]: decrease significantly | mitochondrial morphogenesis and distribution [6]: can alter the mitochondrial morphogenesis and distribution
